Our source for the EC50 and IC50 values is US20240083910A1, “AMIDO-SUBSTITUTED PYRIDYL COMPOUNDS AND METHODS OF USE THEREOF FOR THE TREATMENT OF HERPESVIRUSES” (Merck Sharp & Dohme LLC, priority 2020, published 2024).

The subject of assay [1] is VZV. Kind of assay: Viral qPCR assay, VZV. It is filed as cell-based, varicella zoster virus. Particulars: Human alphaherpesvirus 3, 72 h, MeWo or MRC5 cells, 0.04-0.1 pfu/cell, growth medium, viral genome copies by qPCR. The method, boiled down:
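VZV strain Street at 0.04-0.1 pfu/cell infected MeWo or MRC5 cells added to 10-point, 3-fold compound dilutions; ~72 h at 37° C. Viral genome copies by TaqMan qPCR against plasmid standard curve, sometimes normalised to PPIA, scaled between uninfected and DMSO-infected controls; EC50 from 4-parameter fit.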

For assay [2], the system named is HSV-1 Strain F. Nature of the assay: Viral qPCR assay, HSV-1. Type of assay: cell-based, Herpes Simplex Virus type 1. The note with it: Human alphaherpesvirus 1, 72 h, Vero or MRC5 cells, 0.0005-0.004 pfu/cell, growth medium, viral genome copies by qPCR, read-out: HSV1 Cell (EC50). The method, boiled down: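 HSV-1 strain F at 0.0005–0.004 pfu/cell infected Vero or MRC5 cells, which were added to a 10-point 3-fold compound dilution and cultured ~72 h at 37 °C. Viral genomes in the lysates were quantified by TaqMan qPCR against a plasmid standard curve, in some runs normalized to cellular PPIA. EC50 came from a 4-parameter fit of % effect.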

Assay [3] has as its system HCMV Strain AD169. Nature of the assay: Viral qPCR assay, HCMV. It is filed as cell-based, Human cytomegalovirus. The note with it: Human betaherpesvirus 5, AD169, MRC5, 72 h, MRC-5 cells, 0.05-0.1 pfu/cell, growth media or 50% fetal bovine serum, viral genome copies by qPCR, read-out: CMV Cell (EC50). The procedure, abridged: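 HCMV AD169 at 0.05-0.1 pfu/cell infected MRC-5 cells, added to 10-point 3-fold compound dilutions, in growth medium or medium with 50% FBS; ~72 h at 37°C. Viral genome copies by TaqMan qPCR against plasmid standard curve, normalized to DMSO and uninfected controls; EC50 from 4-parameter fit.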

Assay [4] has as its target T1, Human cytomegalovirus DNA polymerase (Human cytomegalovirus, UniProt P08546).
T1 construct: made in house; host or cells: SF21 insect cells (baculovirus vector)
Nature of the assay: CMV polymerase assay (AlphaLISA). The note with it: HCMV polymerase 0.2 nM; 30 min pre-incubation; 60 min at 37° C.; read-out: CMV (IC50). Type of assay: biochemical. The procedure, abridged:
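Baculovirus-expressed polymerase (HCMV 0.2 nM, VZV 0.4 nM) preincubated 30 min with compound, then reacted 60 min at 37 °C with 1.6 nM DIG-primer/59-mer template and low-nM dNTPs including 0.8 nM biotin-dUTP. Incorporation detected by AlphaLISA; IC50 from a 4-parameter fit normalized to DMSO and pre-quenched controls.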

The target of assay [5] is T2, varicella zoster virus DNA polymerase (Varicella-zoster virus, UniProt P09252).
T2 construct: made in house; host or cells: SF21 insect cells (baculovirus vector)
Kind of assay: VZV polymerase assay (AlphaLISA). It is filed as biochemical. Particulars: VZV polymerase 0.4 nM; 30 min pre-incubation; 60 min at 37° C. The procedure: Human cytomegalovirus and varicella zoster virus DNA polymerases were expressed via baculovirus vector in SF21 cells and purified. Heterodimeric nucleic acid substrate used in the herpesvirus polymerase reactions was generated by annealing a 59-mer template to a 17-mer digoxigenin-labeled primer. Polymerase (HCMV final concentration of 0.2 nM; VZV final concentration of 0.4 nM) was combined with an inhibitor compound or DMSO in assay buffer (10 mM HEPES, pH 7.5, 25 mM KCl, 25 mM NaCl, 5 mM MgCl2, 5% glycerol, 0.67 mg/ml bovine serum albumin, and 1 mM tris(2-carboxyethyl)phosphine), and this mixture was pre-incubated for 30 minutes at room temperature in 384-well microtiter plates. The polymerization reaction was initiated by the addition of template/primer substrate (final concentration: 1.6 nM), and dNTPs (final concentration: 24 nM dCTP, 24 nMdGTP, 16 nM dATP, 16 nM dTTP, and 0.8 nM biotin-dUTP). After 60 min incubation at 37° C., reactions were terminated with quench buffer (25 mM HEPES pH 7.5, 100 mM NaCl, 0.25% Tween-20, 12 mM EDTA, and 1 mg/ml bovine serum albumin). Incorporation of biotinylated UTP was detected with 2.5-5 ug/ml anti-DIG AlphaLISA acceptor beads and 5-10 ug/ml streptavidin AlphaLISA donor beads (PerkinElmer). Compound effects were normalized to the window defined by the controls (DMSO only and pre-quenched wells) and were fit using a 4-parameter algorithm to report an IC50.

Each structure is given as a SMILES string.

T1 sequence (P08546 whole entry): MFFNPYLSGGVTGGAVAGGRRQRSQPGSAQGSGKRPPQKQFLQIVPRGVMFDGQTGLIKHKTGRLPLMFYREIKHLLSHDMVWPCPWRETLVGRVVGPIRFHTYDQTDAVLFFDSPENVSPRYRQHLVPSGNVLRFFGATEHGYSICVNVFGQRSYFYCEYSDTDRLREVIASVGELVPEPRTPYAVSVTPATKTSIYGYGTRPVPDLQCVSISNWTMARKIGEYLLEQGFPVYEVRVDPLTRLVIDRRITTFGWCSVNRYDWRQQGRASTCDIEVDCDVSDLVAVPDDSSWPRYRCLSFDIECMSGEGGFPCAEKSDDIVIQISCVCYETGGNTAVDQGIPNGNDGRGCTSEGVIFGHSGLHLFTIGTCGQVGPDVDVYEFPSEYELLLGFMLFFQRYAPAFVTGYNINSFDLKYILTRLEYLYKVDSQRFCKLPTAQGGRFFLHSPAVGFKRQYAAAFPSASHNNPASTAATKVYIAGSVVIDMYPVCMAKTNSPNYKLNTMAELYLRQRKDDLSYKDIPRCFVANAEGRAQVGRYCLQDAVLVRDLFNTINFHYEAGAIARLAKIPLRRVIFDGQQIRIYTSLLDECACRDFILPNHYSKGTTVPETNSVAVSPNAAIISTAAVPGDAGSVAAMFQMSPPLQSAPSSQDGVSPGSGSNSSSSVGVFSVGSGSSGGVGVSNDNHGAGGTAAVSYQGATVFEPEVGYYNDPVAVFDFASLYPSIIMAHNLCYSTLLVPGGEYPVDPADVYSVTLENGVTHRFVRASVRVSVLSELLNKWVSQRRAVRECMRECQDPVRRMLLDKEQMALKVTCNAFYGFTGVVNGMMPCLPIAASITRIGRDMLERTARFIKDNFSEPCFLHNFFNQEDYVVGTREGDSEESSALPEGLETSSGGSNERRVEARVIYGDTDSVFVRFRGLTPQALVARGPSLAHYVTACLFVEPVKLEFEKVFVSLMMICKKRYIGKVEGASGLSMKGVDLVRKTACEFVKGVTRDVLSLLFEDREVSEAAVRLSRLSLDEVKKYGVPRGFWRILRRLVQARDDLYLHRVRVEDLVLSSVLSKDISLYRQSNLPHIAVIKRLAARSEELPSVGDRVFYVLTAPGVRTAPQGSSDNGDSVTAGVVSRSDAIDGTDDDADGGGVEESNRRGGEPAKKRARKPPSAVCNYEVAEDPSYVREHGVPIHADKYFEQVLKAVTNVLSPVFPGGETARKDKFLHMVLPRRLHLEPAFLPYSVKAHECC
T2 sequence (P09252 whole entry): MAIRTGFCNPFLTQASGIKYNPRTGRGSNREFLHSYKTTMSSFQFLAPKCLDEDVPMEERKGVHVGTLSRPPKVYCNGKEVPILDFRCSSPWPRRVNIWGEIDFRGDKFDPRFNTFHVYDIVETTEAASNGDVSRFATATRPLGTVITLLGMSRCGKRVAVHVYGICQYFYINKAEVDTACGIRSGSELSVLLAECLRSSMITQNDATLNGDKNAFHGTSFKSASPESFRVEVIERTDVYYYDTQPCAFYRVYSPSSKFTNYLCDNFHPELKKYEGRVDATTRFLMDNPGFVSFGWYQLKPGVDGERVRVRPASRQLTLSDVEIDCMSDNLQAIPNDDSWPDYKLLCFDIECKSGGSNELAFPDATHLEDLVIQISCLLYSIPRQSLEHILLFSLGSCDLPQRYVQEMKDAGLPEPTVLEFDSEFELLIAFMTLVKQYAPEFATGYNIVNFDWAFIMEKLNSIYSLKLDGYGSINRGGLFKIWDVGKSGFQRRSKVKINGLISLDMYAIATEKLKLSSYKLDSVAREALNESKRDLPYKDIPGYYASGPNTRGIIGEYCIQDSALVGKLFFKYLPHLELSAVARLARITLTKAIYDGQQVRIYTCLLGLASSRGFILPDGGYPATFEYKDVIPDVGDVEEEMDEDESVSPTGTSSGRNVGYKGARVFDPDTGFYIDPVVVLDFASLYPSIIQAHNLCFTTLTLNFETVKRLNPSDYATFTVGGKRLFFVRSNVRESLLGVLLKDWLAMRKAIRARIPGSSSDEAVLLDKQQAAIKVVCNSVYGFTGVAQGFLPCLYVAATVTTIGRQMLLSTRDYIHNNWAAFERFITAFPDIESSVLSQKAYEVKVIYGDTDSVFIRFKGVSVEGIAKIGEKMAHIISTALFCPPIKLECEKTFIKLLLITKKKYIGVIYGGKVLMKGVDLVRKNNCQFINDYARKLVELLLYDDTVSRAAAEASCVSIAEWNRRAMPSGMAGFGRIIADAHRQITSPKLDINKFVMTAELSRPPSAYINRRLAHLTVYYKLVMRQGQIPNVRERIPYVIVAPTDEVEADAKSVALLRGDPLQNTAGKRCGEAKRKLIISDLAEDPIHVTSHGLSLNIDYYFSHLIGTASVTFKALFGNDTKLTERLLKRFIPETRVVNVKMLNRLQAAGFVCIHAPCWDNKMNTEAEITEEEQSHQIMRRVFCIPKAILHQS

On to `COc1nc(-c2cnc(C(C)(C)O)s2)c(O[C@H]2CCN3C(=O)OC[C@@H]3C2)cc1C(=O)NCc1ccc(Cl)cc1` [Compound 19], for which the EC50 was 204 nM in assay [1], 96.9 nM in assay [2] and 157 nM in assay [3]. The IC50 in assay [4] worked out at 5.55 nM; in assay [5], 2.91 nM.

Turning to `COc1nc(-c2cnn(C3CC3)c2)c(O[C@H]2CCN3C(=O)OC[C@@H]3C2)cc1C(=O)NCc1ccc(Cl)cc1` [Compound 22], the values for the EC50 in assay [1], in assay [2] and in assay [3] were 129 nM, 93 nM and 170 nM, respectively. For the same compound, the values for the IC50 in assay [4] and in assay [5] were 3.69 nM and 4.84 nM, respectively.

For `COc1nc(-c2cnn3c2CCC3)c(O[C@H]2CCN3C(=O)OC[C@@H]3C2)cc1C(=O)NCc1ccc(Cl)cc1` [Compound 24], the EC50 in assay [1] came to 390 nM; in assay [2] it was 195 nM; in assay [3], 200 nM. Moreover, the IC50 in assay [4] was 7.58 nM; in assay [5] it was 4.03 nM.

With `COc1nc(-c2ccnnc2)c(O[C@H]2CCN3C(=O)OC[C@@H]3C2)cc1C(=O)NCc1ccc(Cl)cc1` [Compound 37], the EC50 in assay [1] came out at 178 nM; in assay [2] it was 144 nM; in assay [3], 180 nM. Also, the values for the half-inhibitory concentration (IC50) in assay [4] and in assay [5] were 8.81 nM and 8.24 nM, respectively.

With `COc1nc(-c2cncnc2)c(O[C@H]2CCN3C(=O)OC[C@@H]3C2)cc1C(=O)NCc1ccc(Cl)cc1` [Compound 38], the EC50 is 150 nM in assay [1], 83.1 nM in assay [2] and 111 nM in assay [3]. The half-maximal inhibitory concentration (IC50) came out at 9.81 nM in assay [4] and 5.86 nM in assay [5].

Consider `COc1nc(-c2cccnc2)c(O[C@H]2CCN3C(=O)OC[C@@H]3C2)cc1C(=O)NCc1ccc(Cl)cc1` [Compound 40], for which the EC50 in assay [1] worked out at 200 nM; in assay [2] it was 123 nM; in assay [3] it was 206 nM. For the same compound, the values for the IC50 in assay [4] and in assay [5] were 15.9 nM and 10.2 nM, respectively.

For the compound `COc1nc(-c2cnc(N)c(F)c2)c(O[C@H]2CCN3C(=O)OC[C@@H]3C2)cc1C(=O)NCc1ccc(Cl)cc1` [Compound 46], the figures for the EC50 in assay [1], in assay [2] and in assay [3] were 121 nM, 51.6 nM and 165 nM, respectively. Also, the IC50 in assay [4] was determined as 4.69 nM; in assay [5], 1.53 nM.

As for `COc1nc(-c2cnn(C(F)F)c2)c(O[C@H]2CCN3C(=O)OC[C@@H]3C2)cc1C(=O)NCc1ccc(Cl)c(F)c1` [Compound 55], the EC50 was determined as 178 nM in assay [1], 102 nM in assay [2] and 161 nM in assay [3]. In addition, the IC50 in assay [4] came out at 3.16 nM; in assay [5] it was 5.38 nM.

Take `COc1nc(-c2cnn(C(F)F)c2)c(O[C@H]2CCN3C(=O)OC[C@@H]3C2)cc1C(=O)NCc1ccc(C#N)cc1` [Compound 56]: the EC50 in assay [1] came to 123 nM; in assay [2] it was 36.3 nM; in assay [3], 102 nM. Also, the figures for the IC50 in assay [4] and in assay [5] were 2.08 nM and 6.48 nM, respectively.

As for `COc1nc(-c2cnn(C(F)F)c2)c(O[C@H]2CCN3C(=O)OC[C@@H]3C2)cc1C(=O)NCc1ccc(C#N)c(F)c1` [Compound 58], the figures for the EC50 in assay [1], in assay [2] and in assay [3] were 103 nM, 63.4 nM and 59.3 nM, respectively. The IC50 in assay [4] was determined as 2.95 nM; in assay [5], 0.259 nM.

Take `COc1nc(-c2cnco2)c(O[C@H]2CCN3C(=O)OC[C@@H]3C2)cc1C(=O)NCc1ccc(C#N)cc1` [Compound 60]: the figures for the EC50 in assay [1], in assay [2] and in assay [3] were 90.4 nM, 65 nM and 29.8 nM, respectively. Besides, the IC50 in assay [4] turned out to be 6.32 nM; in assay [5] it was 0.351 nM.

In the case of `COc1nc(-c2nc(C)ns2)c(O[C@H]2CCN3C(=O)OC[C@@H]3C2)cc1C(=O)NCc1ccc(Cl)cc1` [Compound 61], the EC50 worked out at 70.8 nM in assay [1], 49 nM in assay [2] and 60.1 nM in assay [3]. Also, the IC50 was determined as 1.44 nM in assay [4] and 0.0412 nM in assay [5].

For the compound `COc1nc(-c2ncco2)c(O[C@H]2CCN3C(=O)OC[C@@H]3C2)cc1C(=O)NCc1ccc(Cl)cc1` [Compound 62], the results for the EC50 in assay [1], in assay [2] and in assay [3] were 157 nM, 129 nM and 73 nM, respectively. The IC50 in assay [4] amounted to 4.3 nM; in assay [5], 0.252 nM.

With `COc1nc(N2CC(F)(F)C2)c(O[C@H]2CCN3C(=O)OC[C@@H]3C2)cc1C(=O)NCc1ccc(Cl)cc1` [Compound 65], the EC50 turned out to be 758 nM in assay [1], 877 nM in assay [2] and 376 nM in assay [3]. For the same compound, the values for the half-inhibitory concentration (IC50) in assay [4] and in assay [5] were 16.4 nM and 5.28 nM, respectively.

Regarding `COc1nc(N2CC(C(C)(C)O)C2)c(O[C@H]2CCN3C(=O)OC[C@@H]3C2)cc1C(=O)NCc1ccc(Cl)cc1` [Compound 70], the EC50 amounted to 409 nM in assay [1], 278 nM in assay [2] and 194 nM in assay [3]. The IC50 in assay [4] turned out to be 15 nM; in assay [5], 14.5 nM.

With `COc1nc(-c2nc(C)no2)c(O[C@H]2CCN3C(=O)OC[C@@H]3C2)cc1C(=O)NCc1ccc(Cl)cc1` [Compound 82], the EC50 in assay [1] is 103 nM; in assay [2], 73.9 nM; in assay [3], 83.5 nM. Moreover, the figures for the half-inhibitory concentration (IC50) in assay [4] and in assay [5] were 8.36 nM and 0.0532 nM, respectively.

With `COc1nc(-c2nnc(C3CC3)s2)c(O[C@H]2CCN3C(=O)OC[C@@H]3C2)cc1C(=O)NCc1ccc(Cl)cc1` [Compound 83], the values for the EC50 in assay [1], in assay [2] and in assay [3] were 110 nM, 83.5 nM and 153 nM, respectively. Besides, the half-inhibitory concentration (IC50) was found to be 11.7 nM in assay [4] and 6.05 nM in assay [5].

In the case of `O=C(NCc1ccc(Cl)cc1)c1cc(O[C@H]2CCN3C(=O)OC[C@@H]3C2)c(-c2cnn(C(F)F)c2)nc1OCCO` [Compound 84], the EC50 in assay [1] came to 140 nM; in assay [2] it was 113 nM; in assay [3], 116 nM. In addition, the values for the IC50 in assay [4] and in assay [5] were 3.33 nM and 0.627 nM, respectively.

In the case of `COCCOc1nc(-c2cnn(C(F)F)c2)c(O[C@H]2CCN3C(=O)OC[C@@H]3C2)cc1C(=O)NCc1ccc(Cl)cc1` [Compound 85], the values for the EC50 in assay [1], in assay [2] and in assay [3] were 342 nM, 143 nM and 187 nM, respectively. Besides, the figures for the IC50 in assay [4] and in assay [5] were 15.6 nM and 1.47 nM, respectively.

With `CC(C)(O)COc1nc(-c2cnn(C(F)F)c2)c(O[C@H]2CCN3C(=O)OC[C@@H]3C2)cc1C(=O)NCc1ccc(Cl)cc1` [Compound 86], the 50% effective concentration (EC50) in assay [1] was 232 nM; in assay [2], 130 nM; in assay [3] it was 213 nM. For the same compound, the IC50 in assay [4] is 8.84 nM; in assay [5], 2.96 nM.

As for `COc1nc(Br)c(O[C@H]2CCN3C(=O)OC[C@@H]3C2)cc1C(=O)NCc1ccc(Cl)cc1` [Int-3], the EC50 was determined as 651 nM in assay [1], 832 nM in assay [2] and 822 nM in assay [3]. In addition, the IC50 in assay [4] stood at 55.9 nM; in assay [5] it was 21.3 nM.
